Assay results taken from patent US8697694B2, “Substituted pyridine and pyrimidine derivatives and their use in treating viral infections” (priority 2008, dated 2014).

Each compound was assayed on HCV replicon cells (assay: Cell-based HCV replicon assay (replicon RNA level by real time PCR, Taqman)). Conditions: Hepatitis C virus, 72 h, HCV replicon cells, harvested day 3, replicon RNA by real time PCR; given as number; read-out: EC90 (μM) range.
Experimental: Assays Cell-Based HCV Replicon Assay
To measure cell-based anti-HCV activity of the compounds of the present invention, replicon cells were seeded at 5000 cells/well in 96-well collagen I-coated Nunc plates in the presence of the compound of the invention. Various concentrations of a compound of the invention, typically in 10 serial 2-fold dilutions, were added to the assay mixture, the starting concentration of the compound ranging from 25 μM to 1 μM. The final concentration of DMSO was 0.5%, fetal bovine serum was 10%, in the assay media. Cells were harvested on day 3 by the addition of 1× cell lysis buffer (Ambion cat #8721). The replicon RNA level was measured using real time PCR (Taqman assay). The amplicon was located in 5B. The PCR primers were: 5B.2F, ATGGACAGGCGCCCTGA (SEQ. ID NO. 1); 5B.2R, […] (SEQ. ID NO. 2); the probe sequence was FAM-labeled CACGCCATGCGCTGCGG (SEQ. ID NO. 3). GAPDH RNA was used as endogenous control and was amplified in the same reaction as NS5B (multiplex PCR) using primers and VIC-labeled probe recommended by the manufacturer (PE Applied Biosystem). The real-time RT-PCR reactions were run on ABI PRISM 7900HT Sequence Detection System using the following program: 48′C for 30 min, 95° C. for 10 min, 40 cycles of 95° C. for 15 sec, 60° C. for 1 min. The ΔCT values (CT5B-CTGAPDH) were plotted against the concentration of test compound and fitted to the sigmoid dose-response model using GraphPad PRISM software. EC50 was defined as the concentration of inhibitor necessary to achieve ΔCT=1 over the projected baseline; EC90 the concentration necessary to achieve ΔCT=3.2 over the baseline. Alternatively, to quantitate the absolute amount of replicon RNA, a standard curve was established by including serially diluted T7 transcripts of replicon RNA in the Taqman assay. All Taqman reagents were from PE Applied Biosystems. Such an assay procedure was described in detail in e.g. Malcolm et al., Antimicrobial Agents and Chemotherapy 50: 1013-1020 (2006).
HCV Replicon assay data for compounds of the invention that were tested was obtained using the above method. Calculated EC90 values are reported for each compound in Table I as a falling within the following ranges: […]
Work on `CCCOc1cc2cc(-c3c(C)nc(NCC4CC4)nc3N[C@@H]3C[C@H](CO)[C@@H](O)[C@H]3O)oc2c(C)n1` [Example 38] yielded an EC90 of 0.25 µM.
Compound `CCOc1cc2cc(-c3c(C)nc(N[C@H](C)c4ccc(C)cc4)nc3N[C@@H]3C[C@H](CO)[C@@H](O)[C@H]3O)oc2c(C)n1` [Example 40] has an EC90 of 0.15 µM.

Same assay, conditions: Hepatitis C virus, 72 h, HCV replicon cells, harvested day 3, replicon RNA by real time PCR; reported as range class; read-out: EC90 (μM) range
Compound `CCc1cc2cc(-c3c(Cl)nc(N)nc3N[C@@H]3C[C@H](CO)[C@@H](O)[C@H]3O)oc2cn1` [Example 406] has an EC90 of less than 0.5 µM.
With `Nc1nc(N[C@@H]2C[C@H](CO)[C@@H](O)[C@H]2O)c(-c2ncccn2)c(-c2ncccn2)n1` [Example 160] the EC90 was greater than 5 µM.
Compound `CC1(C)O[C@@H]2[C@@H](CO)C[C@@H](Nc3nc(N)nc(-c4nc5c(F)cc(F)cc5s4)c3-c3nc4c(F)cc(F)cc4s3)[C@@H]2O1` [Example 185] has an EC90 greater than 5 µM.
`CCN(C)c1nc(Cl)c(-c2nc3ccccc3s2)c(N[C@@H]2C[C@H](CO)[C@@H](O)[C@H]2O)n1` [Example 318] was tested, and the EC90 was less than 0.5 µM.
In the case of `Nc1nc(Cl)c(-c2ccc(C=O)o2)c(N[C@@H]2C[C@H](CO)[C@@H](O)[C@H]2O)n1` [Example 156], the EC90 is reported as greater than 5 µM.
Work on `Nc1nc(Cl)c(-c2ccccc2)c(N[C@@H]2C[C@H](CO)[C@@H](O)[C@H]2O)n1` [Example 5] yielded an EC90 greater than 5 µM.
For `COCCNc1nc(Cl)c(-c2nc3ccccc3s2)c(N[C@@H]2C[C@H](CO)[C@@H](O)[C@H]2O)n1` [Example 201], the EC90 was less than 0.5 µM.
Compound `CN(C)C(=O)c1ccc2cc(-c3c(Cl)nc(N)nc3N[C@@H]3C[C@H](CO)[C@@H](O)[C@H]3O)oc2c1` [Example 176] has an EC90 greater than 5 µM.
`CC(C)OCCNc1nc(Cl)c(-c2nc3ccccc3s2)c(N[C@@H]2C[C@H](CO)[C@@H](O)[C@H]2O)n1` [Example 219] showed an EC90 of less than 0.5 µM.

Same assay, conditions: Hepatitis C virus, 72 h, HCV replicon cells, harvested on day 3, replicon RNA by real time PCR; calculated EC90 reported as range class; read-out: EC90 (μM) range
`COCc1cc2cc(-c3c(C)nc(NCc4nccs4)nc3N[C@@H]3C[C@H](CO)[C@@H](O)[C@H]3O)oc2cn1` [Example 340] gave an EC90 of less than 0.5 µM.
Work on `Cc1nc(NCc2cccs2)nc(N[C@@H]2CC[C@H]3OC4(CCCCC4)O[C@@H]23)c1-c1nc2ccccc2s1` [Example 334] yielded an EC90 greater than 5 µM.
`Cc1nc(NC(C)(C)C)nc(N[C@@H]2C[C@H](CO)[C@@H](O)[C@H]2O)c1-c1nc2ccccc2s1` [Example 429] was tested, and the EC90 was less than 0.5 µM.
With `Cc1nc(NCc2ccccn2)nc(N[C@@H]2C[C@H](CO)[C@H]3OC(C)(C)O[C@H]32)c1-c1nc2ccccc2s1` [Example 462] the EC90 was 0.5 to 5 µM.
In the case of `OC[C@H]1C[C@@H](Nc2nc(NCCc3ccccc3)nc(Cl)c2-c2nc3ccccc3s2)[C@H](O)[C@@H]1O` [Example 444], the EC90 is reported as less than 0.5 µM.
In the case of `Cc1nc(NCc2cccc[n+]2[O-])nc(N[C@@H]2C[C@H](CO)[C@H]3OC(C)(C)O[C@H]32)c1-c1nc2ccccc2s1` [Example 481], the EC90 is reported as greater than 5 µM.
With `CN(C)c1nc(N[C@@H]2C[C@H](CO)[C@@H](O)[C@H]2O)c(-c2nc3ccccc3s2)c(C2CC2)n1` [Example 416] the EC90 was 0.5 to 5 µM.
In the case of `Cc1cc2cc(-c3c(Cl)nc(NCC4CCOCC4)nc3N[C@@H]3C[C@H](CO)[C@@H](O)[C@H]3O)oc2c(C)n1` [Example 458], the EC90 is reported as less than 0.5 µM.
Compound `Cc1nc(NCc2cccnc2)nc(N[C@@H]2C[C@H](CO)[C@@H](O)[C@H]2O)c1-c1nc2ccccc2s1` [Example 466] has an EC90 of less than 0.5 µM.
Compound `Cc1nc(NCCNC(=O)OCc2ccccc2)nc(N[C@@H]2C[C@H](CO)[C@@H](O)[C@H]2O)c1-c1nc2ccccc2s1` [Example 254] has an EC90 of 0.5 to 5 µM.
`COC[C@H](C)Nc1nc(C)c(-c2nc3ccccc3s2)c(N[C@@H]2C[C@H](CO)[C@@H](O)[C@H]2O)n1` [Example 439] gave an EC90 of less than 0.5 µM.
In the case of `Cc1nc(NCc2ccccc2C(F)(F)F)nc(N[C@@H]2C[C@H](CO)[C@H]3OC(C)(C)O[C@H]32)c1-c1nc2ccccc2s1` [Example 236], the EC90 is reported as greater than 5 µM.
`CCOCCNc1nc(C)c(-c2nc(C)c(C)s2)c(N[C@@H]2C[C@H](CO)[C@@H](O)[C@H]2O)n1` [Example 137] gave an EC90 of 0.5 to 5 µM.
`CCc1cc2cc(-c3c(C)nc(NCc4cc(OC)cc(OC)c4)nc3N[C@@H]3C[C@H](CO)[C@H]4OC(C)(C)O[C@H]43)oc2cn1` [Example 345] showed an EC90 of less than 0.5 µM.

Same assay, conditions: Hepatitis C virus, 72 h, HCV replicon cells, replicon RNA level by real time PCR (Taqman), day 3; calculated EC90; read-out: EC90 (μM) range
In the case of `Cc1nc(NCC(O)c2ccccc2)nc(N[C@@H]2C[C@H](CO)[C@@H](O)[C@H]2O)c1-c1nc2ccccc2s1` (some centres unmarked) [Example 1919], the EC90 is reported as 0.5 to 5 µM.

Same assay, conditions: Hepatitis C virus, 72 h, HCV replicon cells, replicon RNA level by real time PCR (Taqman), harvested on day 3; calculated EC90 reported as range class; read-out: EC90 (μM) range
Work on `Cc1nc(NCC(F)(F)F)nc(N[C@@H]2C[C@H](CO)[C@@H](O)[C@H]2O)c1-c1cc2cc(OCC(C)C)nc(C)c2o1` [Example 1055] yielded an EC90 of 0.5 to 5 µM.
Work on `Cc1nc(NCC(C)(C)C)nc(N2CCC[C@H]2CO)c1-c1nc2ccccc2s1` [Example 1223] yielded an EC90 greater than 5 µM.
Work on `Cc1ccc2nc(-c3c(C)nc(NCC(F)(F)F)nc3N[C@@H]3C[C@H](CO)[C@@H](O)[C@H]3O)sc2c1` [Example 1063] yielded an EC90 of 0.5 to 5 µM.
Compound `Cc1nc(NCc2cccc(CN(C)C)c2)nc(N[C@@H]2C[C@H](CO)[C@@H](O)[C@H]2O)c1-c1nc2ccccc2s1` [Example 1119] has an EC90 of 0.5 to 5 µM.
With `Cc1nc(Nc2cccc(F)c2)nc(N[C@@H]2C[C@H](CO)[C@@H](O)[C@H]2O)c1-c1nc2ccccc2s1` [Example 1042] the EC90 was greater than 5 µM.
In the case of `COc1cccc2sc(-c3c(C)nc(NCC4CC4)nc3N[C@@H]3C[C@H](CO)[C@@H](O)[C@H]3O)nc12` [Example 1067], the EC90 is reported as less than 0.5 µM.
In the case of `COc1ccccc1Nc1nc(C)c(-c2nc3ccccc3s2)c(N[C@@H]2C[C@H](CO)[C@@H](O)[C@H]2O)n1` [Example 1123], the EC90 is reported as 0.5 to 5 µM.
Work on `Cc1nc(NCC(C)(C)C)nc(N[C@@H]2C[C@H](CO)[C@@H](O)[C@H]2O)c1-c1ccc2ccccc2n1` [Example 1322] yielded an EC90 greater than 5 µM.
With `[2H]C([2H])(Nc1nc(C)c(-c2nc3ccccc3s2)c(N[C@@H]2C[C@H](CO)[C@@H](O)[C@H]2O)n1)c1cc(OC)cc(OC)c1` [Example 1244] the EC90 was less than 0.5 µM.

Same assay, conditions: Hepatitis C virus, 72 h, HCV replicon cells, replicon RNA level by real time PCR, harvested day 3; read-out: EC90 (μM) range
`CCOCCNc1nc(C)c(-c2nc3cnccc3s2)c(N[C@@H]2CC[C@@H](O)[C@@]2(C)O)n1` [Example 1819] showed an EC90 of less than 0.5 µM.
For `Cc1nc(NCC(F)(F)F)nc(N[C@@H]2C[C@H](CN3CCCS3(=O)=O)[C@@H](O)[C@H]2O)c1-c1nc2ccccc2s1` [Example 1396], the EC90 was less than 0.5 µM.
For `Cc1nc(NCC(F)(F)F)nc(N[C@@H]2C[C@H](CN3CCOC3=O)[C@@H](O)[C@H]2O)c1-c1nc2ccccc2s1` [Example 1400], the EC90 was less than 0.5 µM.
`CCCc1nccc2sc(-c3c(C)nc(NCC4CC4)nc3N[C@@H]3C[C@H](CO)[C@@H](O)[C@H]3O)nc12` [Example 1369] showed an EC90 of less than 0.5 µM.
Compound `Cc1nc(N[C@H](C)c2ccc(-n3cccn3)cc2)nc(N[C@@H]2C[C@H](CO)[C@@H](O)[C@H]2O)c1-c1nc2ccccc2s1` [Example 1365] has an EC90 of less than 0.5 µM.
`CCOc1ccc(CCNc2nc(C)c(-c3nc4cnccc4s3)c(N[C@@H]3C[C@H](CO)[C@@H](O)[C@H]3O)n2)cc1` [Example 1705] was tested, and the EC90 was less than 0.5 µM.
`Cc1nc(NCC(O)c2ccccc2)nc(N[C@@H]2C[C@H](CO)[C@@H](O)[C@H]2O)c1-c1nc2cnccc2s1` (some centres unmarked) [Example 1918] was tested, and the EC90 was less than 0.5 µM.
Compound `Cc1nc(NCC(F)(F)F)nc(N[C@@H]2CC[C@@H](O)[C@@]2(C)O)c1-c1nc2ccccc2s1` [Example 1702] has an EC90 of 0.5 to 5 µM.
`CCOc1cc2sc(-c3c(C)nc(NCC4CC4)nc3N[C@@H]3C[C@H](CO)[C@@H](O)[C@H]3O)nc2c(C)n1` [Example 1374] gave an EC90 of 0.5 to 5 µM.
For `Cc1nc(N[C@H](C)c2ccc(OC(F)(F)F)cc2)nc(N[C@@H]2C[C@H](C(C)O)[C@@H](O)[C@H]2O)c1-c1nc2cnccc2s1` (some centres unmarked) [Example 1649], the EC90 was less than 0.5 µM.
For `Cc1nc(NCC(F)(F)F)nc(N[C@@H]2C[C@H](CNS(=O)(=O)CC(C)C)[C@@H](O)[C@H]2O)c1-c1nc2ccccc2s1` [Example 1512], the EC90 was 0.5 to 5 µM.
Compound `Cc1nc(N)nc(N[C@@H]2C[C@H](CO)[C@@H](O)[C@H]2O)c1-c1nc2c(C)nccc2s1` [Example 1534] has an EC90 greater than 5 µM.
Work on `Cc1nc(N[C@H](C)c2ccc(-n3cccn3)cc2)nc(N[C@@H]2C[C@H](CO)[C@@H](O)[C@H]2O)c1-c1nc2c(C)nccc2s1` [Example 1355] yielded an EC90 of less than 0.5 µM.
Compound `Cc1nc(NCC(F)(F)F)nc(N[C@@H]2C[C@H](C(C)O)[C@@H](O)[C@H]2O)c1-c1nc2ccccc2s1` (some centres unmarked) [Example 1632] has an EC90 of less than 0.5 µM.
`CCN(C[C@@H]1C[C@@H](Nc2nc(NCC(F)(F)F)nc(C)c2-c2nc3ccccc3s2)[C@H](O)[C@@H]1O)S(C)(=O)=O` [Example 1393] showed an EC90 of 0.5 to 5 µM.
